{"source": "patent US6583127B1", "about": "“Use of etherlysophospholipids as antiinflammatory agents” (Inkeysa. SA, priority 1998, dated 2003)", "key": {"[1]": {"system": "bentonite-induced skin edema in mice", "test": "Bentonite-induced skin edema in mice", "type": "in vivo", "conditions": "for Area (area below the curve of difference between right and left pad diameter) / Inhibition of the inflammatory process: mice; for Inhibition of the inflammatory process: versus inflamed control", "description": "Mice were individually identified with an ear code and were kept in groups of 6 per cage (Makrolon: 47.6×22.7×14.5 cm). Each cage was individually labelled with the n^o. of the study, type of treatment, doses used and route of administration, as well as the name of the director of the study, number and gender of contained animals, date of arrival and of the beginning of the experiment.\nThe animals had free access to mouse standard chow (UAR A04C; Usine d'Alimentation Rationelle, 91360-Villemoisson sur Orge, Francia; lot nos. 70520 and 70722). Drinking water access was ad libitum. The water, supplied by the Compañia de Aguas de Sabadell, S.A., is routinely analysed for the presence of possible contaminants. The temperature in the animal rooms was 22±3° C., with sporadic peaks of 26° C.; air humidity was 60±10%, with sporadic peaks of 80%. Daily light (between 7:00 h and 19:00 h) and dark phases were installed automatically.\nUpon arrival, all animals were allowed to rest in the facilities for 8 days before use in the experiment. Table 2 indicates the six random groups of 10 mice each were set for experimentation.\nThe diameter of both hind pads of all mice was measured at day 0 and set as the basal value. Edema was then induced by injecting s.c. 13.3 mg/ml bentonite in 0.03 ml PBS into the right food pad. The corresponding mice were given daily the different compounds orally for 21 days. The inflamed control group was given 0.2 ml PBS only. The diameter of hind pads, as well as the body weight, was then measured every other day.\nIn each experimental group the average value, the standard deviation (SD) and the standard error was determined for the two parameters studied (hind pad diameter and body weight). The factor variance analysis (FVA) was used to compare the values obtained in the different groups. Where statistically significant differences were observed, the Duncan-Kramer test for a p<0.05 was applied.\nThe area below the curves corresponding to the diameters of the right and left pads was calculated and the evolution of the difference between them were plotted (FIGS. 7 and 8). The anti-inflammatory capacity of the different substances was evaluated as the extent of inhibition of the inflammatory process that was calculated with the formula [formula]\nwhere C is the area below the inflammed control group and T the area below the different treatment groups."}, "[2]": {"system": "PGE2 synthesis in human mucosal gastric biopsies", "test": "Ex vivo PGE2 synthesis in human mucosal gastric biopsies", "experimental": "The ability of the gastric mucosa to generate prostaglandins estimates total cyclooxygenase (COX) activity (COX-1 plus any COX-2). To measure ex vivo prostaglandin E2 (PGE2) synthesis, normal gastric mucosal biopsies were immediately placed in Ependorff tubes containing phosphate-buffered saline (PBS). […] Each mucosal gastric biopsy was cut into different pieces (about 1 mg weight) that were subsequently weighed and incubated in the absence or in the presence of the distinct agents indicated in the corresponding Table for 20 min at 37° C. in 200 μl Hepes-glucose buffer. Then cells were mucosal gastric samples were pelleted by centrifugation, lysed and intracellular PGE2 was measured using an enzyme immunoassay kit (Amersham Pharmacia Biotech, Buckinghamshire, UK) following the manufacturer's instructions. Prostaglandin synthesis is expressed as picograms of PGE2 synthesised per mg of tissue incubation. Each experiment corresponded to the use of one biopsy, in order to avoid variability among different biopsies. Normal volunteers without a previous pharmacological treatment were selected for these assays. The normal gastroduodenal mucosa was visually assessed by endoscopy.\nHuman mucosal gastric biopsies were cut into about 1 mg pieces, incubated with the indicted agents (10 μM) for 20 min at 37° C. in Hepes-glucose buffer, and then the intracellular content of PGE2 was determined as described in the Methods section. Untreated control samples were run in parallel. Data are shown as mean Values+S.D. from three independent experiments."}, "CD11b": {"system": "CD11b", "test": "Cell surface expression of CD11b in human neutrophils (immunofluorescence flow cytometry)", "type": "cell-based", "conditions": "Medium = 100", "description": "Isolation and treatment of neutrophils.\nMonoclonal antibodies. […] The antibodies are commercially available.\nImmunofluorescence flow cytometry. […] Results were expressed as relative MFI (rMFI), such that\nrMFI=(MFIagent×100)/MFImedium\nBackground fluorescence was substracted from all values."}, "[3]": {"conditions": "2.5 mg/kg orally daily for 21 days"}, "[4]": {"conditions": "5 mg/kg orally daily for 21 days"}}}
{"smiles": "CCCCCCCCCCCCCCCCCCOCC(COP(=O)([O-])OCC[N+](C)(C)C)OC", "note": "(stereo not drawn) [IEC01, Edelfosine]", "values": [{"measurement": "times more efficient in inhibiting inflammation than indomethacin, at the molecular level", "setting": "[1]; 2.5 mg/kg versus indomethacin 2 mg/kg, taking molecular weights into account", "result": 2, "unit": "times"}, {"measurement": "Area (area below the curve of difference between right and left pad diameter)", "setting": "[1]; [3]", "result": "5.9 ± 0.45", "unit": "A.U."}, {"measurement": "Inhibition of the inflammatory process", "setting": "[1]; [3]", "result": 23.5, "unit": "%"}, {"measurement": "Area (area below the curve of difference between right and left pad diameter)", "setting": "[1]; [4]", "result": "7.0 ± 1.34", "unit": "A.U."}, {"measurement": "Inhibition of the inflammatory process", "setting": "[1]; [4]", "result": 9.7, "unit": "%"}, {"measurement": "pg PGE2/mg (weight)", "setting": "[2]; human mucosal gastric biopsies, agents 10 μM, 20 min at 37° C., Control 115 ± 26, mean ± S.D., three experiments", "result": "131 ± 29", "unit": "pg PGE2/mg"}, {"measurement": "effect on mucosal PGE2 synthesis (in words)", "setting": "[2]; normal mucosal gastric biopsies, ex vivo", "result": "did not inhibit"}, {"measurement": "CD11b cell surface expression (rMFI)", "setting": "CD11b; 10 ng/ml, rMFI=(MFIagent×100)/MFImedium", "result": "97.5 ± 8.5"}, {"measurement": "CD11b cell surface expression (rMFI)", "setting": "CD11b; 100 ng/ml", "result": "101 ± 3"}, {"measurement": "CD11b cell surface expression (rMFI)", "setting": "CD11b; 500 ng/ml", "result": "103 ± 3"}, {"measurement": "CD11b cell surface expression (rMFI)", "setting": "CD11b; 1 μg/ml", "result": "105 ± 6"}, {"measurement": "CD11b cell surface expression (rMFI)", "setting": "CD11b; 5 μg/ml", "result": "130 ± 15"}]}
